# Laboratory results: patent publication US7160888B2, “[1,8]naphthyridin-2-ones and related compounds for the treatment of schizophrenia” (Warner Lambert Company LLC, priority 2003, dated 2007)
# Target: D2 receptor (Homo sapiens, UniProt P14416)
# Experiment: [3H]Thymidine uptake assay for D2 intrinsic activity
# Format: cell-based
# Settings: Table 1; test compound 1 μM; 1 μM Quinpirole = 100% intrinsic activity
# Protocol: D2 intrinsic activity of title compounds of the Examples, below, was determined using the [^3H]thymidine uptake assay described below.
# [^3H]Thymidine Uptake Assay for D2 Intrinsic Activity
# Cells are serum deprived by washing twice with 200 μl of serum-free media. 90 μl serum-free media was added to each well. The plates ware incubated for two to three hours. 10 μl of serum-containing media, as a positive control, vehicle (serum-free media), negative control (an antagonist) or test compounds and standards (10 μl of a 10 μM solution for a final concentration of 1 μM) in serum-free media were added to wells. The plates are returned to the incubator. Eighteen hours later [^3H]thymidine is added (0.5 μCi/well in 10 μl of serum-free media) and the plates are returned to the incubator. […] The plates are returned to the incubator, once again. One hour later the assay is terminated by rapid filtration through Whatman GF/C glass fiber filters. Filters are washed four times with 500 ml of 50 mM Tris-HCl pH 7.0 buffer, for example, using a Brandel MLR-96T cell harvester. […] Intrinsic activity is defined as total uptake (1 μM Quinpirole) minus serum-free media (no uptake). Test compounds are compared to 1 μM Quinpirole (full DA agonist), which was classified as 100% intrinsic activity.
# D2 receptor, sequence (P14416 whole entry): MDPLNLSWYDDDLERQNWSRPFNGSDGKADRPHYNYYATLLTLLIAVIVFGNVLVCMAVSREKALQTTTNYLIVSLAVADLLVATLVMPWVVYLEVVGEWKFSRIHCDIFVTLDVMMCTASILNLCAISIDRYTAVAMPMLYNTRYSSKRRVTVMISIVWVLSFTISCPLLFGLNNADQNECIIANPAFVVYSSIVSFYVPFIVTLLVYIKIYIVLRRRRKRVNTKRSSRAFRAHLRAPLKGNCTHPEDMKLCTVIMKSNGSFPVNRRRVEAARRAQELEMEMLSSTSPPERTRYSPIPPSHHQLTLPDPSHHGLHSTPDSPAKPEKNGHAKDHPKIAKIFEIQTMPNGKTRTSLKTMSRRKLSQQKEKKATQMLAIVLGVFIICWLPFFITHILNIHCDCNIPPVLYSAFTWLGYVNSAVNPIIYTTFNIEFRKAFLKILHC
row,Structure (SMILES),Emax at 1 µM [%]
1,"O=c1ccc2ccc(OCCCCN3CCN(c4cccc5cccc(Cl)c45)CC3)nc2[nH]1 [Example B59, 7-{4-[4-(8-Chloro-naphthalen-1-yl)-piperazin-1-yl]-butoxy}-1H-[1,8]naphthyridin-2-one]",37
2,"COc1ccc2cccc(N3CCN(CCCCOc4ccc5ccc(=O)[nH]c5n4)CC3)c2c1 [Example B60, 7-{4-[4-(7-Methoxy-naphthalen-1-yl)-piperazin-1-yl]-butoxy}-1H-[1,8]naphthyridin-2-one]",28
3,"COc1ccc2c(N3CCN(CCCCOc4ccc5ccc(=O)[nH]c5n4)CC3)cccc2c1 [Example B61, 7-{4-[4-(6-Methoxy-naphthalen-1-yl)-piperazin-1-yl]-butoxy}-1H-[1,8]naphthyridin-2-one]",18
4,"CC(=O)c1ccc2cccc(N3CCN(CCCCOc4ccc5ccc(=O)[nH]c5n4)CC3)c2c1 [Example B62, 7-{4-[4-(7-Acetyl-naphthalen-1-yl)-piperazin-1-yl]-butoxy}-1H-[1,8]naphthyridin-2-one]",21
5,"CC(=O)c1ccc2c(N3CCN(CCCCOc4ccc5ccc(=O)[nH]c5n4)CC3)cccc2c1 [Example B63, 7-{4-[4-(6-Acetyl-naphthalen-1-yl)-piperazin-1-yl]-butoxy}-1H-[1,8]naphthyridin-2-one]",18
6,"CC(=O)c1cccc2c(N3CCN(CCCCOc4ccc5ccc(=O)[nH]c5n4)CC3)cccc12 [Example B64, 7-{4-[4-(5-Acetyl-naphthalen-1-yl)-piperazin-1-yl]-butoxy}-1H-[1,8]naphthyridin-2-one]",27
7,"CC(=O)c1ccc(N2CCN(CCCCOc3ccc4ccc(=O)[nH]c4n3)CC2)c2ccccc12 [Example B65, 7-{4-[4-(4-Acetyl-naphthalen-1-yl)-piperazin-1-yl]-butoxy}-1H-[1,8]naphthyridin-2-one]",10
8,"CC(=O)c1ccc2ccccc2c1N1CCN(CCCCOc2ccc3ccc(=O)[nH]c3n2)CC1 [Example B66, 7-{4-[4-(2-Acetyl-naphthalen-1-yl)-piperazin-1-yl]-butoxy}-1H-[1,8]naphthyridin-2-one]",33
9,"N#Cc1ccc2cccc(N3CCN(CCCCOc4ccc5ccc(=O)[nH]c5n4)CC3)c2c1 [Example B67, 8-{4-[4-(7-Oxo-7,8-dihydro-[1,8]naphthyridin-2-yloxy)-butyl]-piperazin-1-yl}-naphthalene-2-carbonitrile]",39
10,"Cn1c(=O)ccc2ccc(OCCCCN3CCN(c4cccc5ccccc45)CC3)nc21 [Example B68, 1-Methyl-7-[4-(4-naphthalen-1-yl-piperazin-1-yl)-butoxy]-1H-[1,8]naphthyridin-2-one]",17
11,"O=c1ccc2ccc(OCCCN3CCN(c4cccc(Cl)c4Cl)CC3)nc2[nH]1 [Example C1, 7-{3-[4-(2,3-Dichloro-phenyl)-piperazin-1-yl]-propoxy}-1H-[1,8]naphthyridin-2-one]",43
12,"O=c1ccc2ccc(OCCCN3CCN(c4cccc5ccccc45)CC3)nc2[nH]1 [Example C2, 7-[3-(4-Naphthalen-1-yl-piperazin-1-yl)-propoxy]-1H-[1,8]naphthyridin-2-one]",24
13,"O=C1CCc2ccc(OCCCN3CCN(c4cccc5ccccc45)CC3)nc2N1 [Example C3, 7-[3-(4-Naphthalen-1-yl-piperazin-1-yl)-propoxy]-3,4-dihydro-1H-[1,8]naphthyridin-2-one]",22
14,"O=c1ccc2ccc(OCCN3CCN(c4cccc(Cl)c4Cl)CC3)nc2[nH]1 [Example C4, 7-{2-[4-(2,3-Dichloro-phenyl)-piperazin-1-yl]-ethoxy}-1H-[1,8]naphthyridin-2-one]",2
15,"CC(CCCN1CCN(c2cccc(Cl)c2Cl)CC1)Oc1ccc2c(n1)NC(=O)CC2 (stereo not drawn) [Example C5, 7-{4-[4-(2,3-Dichloro-phenyl)-piperazin-1-yl]-1-methyl-butoxy}-3,4-dihydro-1H-[1,8]naphthyridin-2-one]",40
16,"CC(CCCN1CCN(c2cccc3ccccc23)CC1)Oc1ccc2c(n1)NC(=O)CC2 (stereo not drawn) [Example C6, 7-[1-Methyl-4-(4-naphthalen-1-yl-piperazin-1-yl)-butoxy]-3,4-dihydro-1H-[1,8]naphthyridin-2-one]",44
17,"CC(C)(CCCN1CCN(c2cccc(Cl)c2Cl)CC1)Oc1ccc2c(n1)NC(=O)CC2 [Example C7, 7-{4-[4-(2,3-Dichloro-phenyl)-piperazin-1-yl]-1,1-dimethyl-butoxy}-3,4-dihydro-1H-[1,8]naphthyridin-2-one]",46
18,"CC(C)(CCCN1CCN(c2cccc3ccccc23)CC1)Oc1ccc2c(n1)NC(=O)CC2 [Example C8, 7-[1,1-Dimethyl-4-(4-naphthalen-1-yl-piperazin-1-yl)-butoxy]-3,4-dihydro-1H-[1,8]naphthyridin-2-one]",33
19,"Cc1cccc(N2CCN(CCCCCc3ccc4c(n3)NC(=O)CC4)CC2)c1Cl [Example C10, 7-{5-[4-(2-Chloro-3-methyl-phenyl)-piperazin-1-yl]-pentyl}-3,4-dihydro-1H-[1,8]naphthyridin-2-one]",5
20,"O=C1CCc2ccc(CCCCCN3CCN(c4ccc(F)c(Cl)c4Cl)CC3)nc2N1 [Example C11, 7-{5-[4-(2,3-Dichloro-4-fluoro-phenyl)-piperazin-1-yl]-pentyl}-3,4-dihydro-1H-[1,8]naphthyridin-2-one]",7
21,"O=C1CCc2ccc(CCCCCN3CCN(c4cccc5c4CCCC5)CC3)nc2N1 [Example C12, 7-{5-[4-(5,6,7.8-Tetrahydro-naphthalen-1-yl)-piperazin-1-yl]-pentyl}-3,4-dihydro-1H-[1,8]naphthyridin-2-one]",12

# Same assay, conditions: Table 2; test compound 1 μM; 1 μM Quinpirole = 100% intrinsic activity
row,Structure (SMILES),Emax at 1 µM [%]
1,"CC1(C)CC(=O)Nc2nc(OCCCCN3CCN(c4cccc5cccnc45)CC3)ccc21 [Example C1′, 4,4-Dimethyl-7-[4-(4-quinolin-8-yl-piperazin-1-yl)-butoxy]-3,4-dihydro-1H-[1,8]naphthyridin-2-one]",38
2,"CC1(C)CC(=O)Nc2nc(OCCCCN3CCN(c4cccc5c4OCCO5)CC3)ccc21 [Example C2′, 7-{4-[4-(2,3-Dihydro-benzo[1,4]dioxin-5-yl)-piperazin-1-yl]-butoxy}-4,4-dimethyl-3,4-dihydro-1H-[1,8]naphthyridin-2-one]",22
3,"CC1(C)CC(=O)Nc2nc(OCCCCN3CCN(c4cccc5c4NC(=O)CC5)CC3)ccc21 [Example C3′, 4,4-Dimethyl-7-{4-[4-(2-oxo-1,2,3,4-tetrahydro-quinolin-8-yl)-piperazin-1-yl]-butoxy}-3,4-dihydro-1H-[1,8]naphthyridin-2-one]",19
4,"CC1(C)CC(=O)Nc2nc(OCCCCN3CCN(c4cccc5ccc(=O)[nH]c45)CC3)ccc21 [Example C4′, 4,4-Dimethyl-7-{4-[4-(2-oxo-1,2-dihydro-quinolin-8-yl)-piperazin-1-yl]-butoxy}-3,4-dihydro-1H-[1,8]naphthyridin-2-one]",21
5,"CC1(C)CC(=O)Nc2nc(OCCCCN3CCN(c4cccc5ccoc45)CC3)ccc21 [Example C5′, 7-[4-(4-Benzofuran-7-yl-piperazin-1-yl)-butoxy]-4,4-dimethyl-3,4-dihydro-1H-[1,8]naphthyridin-2-one]",23
6,"CC1(C)CC(=O)Nc2nc(OCCCCN3CCN(c4cccc5c4OCCC5)CC3)ccc21 [Example C6′, 7-[4-(4-Chroman-8-yl-piperazin-1-yl)-butoxy]-4,4-dimethyl-3,4-dihydro-1H-[1,8]naphthyridin-2-one]",24
